These results are taken from PubChem BioAssay (NCI).

Some test systems named below: ACHN renal; COLO 205 colon; HOP-92 NSCLC; RXF 393 renal; SF-268 CNS; SF-539 CNS; SN12C renal; SW-620 colon; TK-10 renal; U251 CNS.
Common to all, as to assay: DTP human tumour cell line panel, 48 h

“And” between values parts separate entries of the source, which are not always exact repeats. Equal values may be shown once.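 Grown in 96-well plates, cells were treated for 48 hours with each compound at five concentrations. Insufficient inhibition: endpoint recorded as highest concentration tested. Here, GI50 denotes the concentration required for 50% inhibition of growth. TGI: total growth inhibition.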

Consider `Nc1c(C(=O)Nc2ccc([As](=O)(O)O)cc2)cnc2nnnn12`, for which the TGI in the assay on ACHN renal, with COLO 205 colon, with HOP-92 NSCLC, with RXF 393 renal, in the assay on SF-268 CNS and with SF-539 CNS was over 100 µM in each case. The concentration for total growth inhibition (TGI) in the assay with SN12C renal, with SW-620 colon, in the assay with TK-10 renal and in the assay on U251 CNS was over 100 µM throughout.

Turning to `Cc1cc2c(cc1C)NC1=C(N2)OC(c2c[nH]c3ccc(COc4ccccc4)cc23)C1=O` (stereo not drawn), the TGI with ACHN renal is over 100 µM; in the assay on COLO 205 colon, over 100 µM; with HOP-92 NSCLC, over 100 µM; with RXF 393 renal it was over 100 µM; with SF-268 CNS, over 100 µM; with SF-539 CNS, 95.3 µM. Moreover, the TGI with SN12C renal, in the assay on SW-620 colon, with TK-10 renal and with U251 CNS was over 100 µM each time.

For the compound `COc1ccc(-c2cc(-c3ccc(Cl)cc3)c(C#N)c(=O)n2CCCCC(=O)Nc2ccccc2N)cc1`, the GI50 was 5.25 µM with ACHN renal; 4.04 µM with COLO 205 colon; 2.59 µM with HOP-92 NSCLC; 1.69 µM with RXF 393 renal; 22.1 µM with SF-268 CNS; 19.4 µM in the assay on SF-539 CNS. Besides, the GI50 with SN12C renal was 9.32 µM; in the assay with SW-620 colon, 12.6 µM; in the assay with TK-10 renal it was 27.9 µM; in the assay on U251 CNS, 7.97 µM. For the same compound, the TGI with ACHN renal was over 100 µM; in the assay on COLO 205 colon, over 100 µM; in the assay with HOP-92 NSCLC, 9.99 µM; with RXF 393 renal, 6.89 µM; in the assay on SF-268 CNS, over 100 µM; in the assay on SF-539 CNS, over 100 µM. Besides, the TGI in the assay on SN12C renal, in the assay on SW-620 colon, in the assay with TK-10 renal and in the assay on U251 CNS was over 100 µM each time.

Regarding `COc1cc(-c2oc3ccccc3c(=O)c2O)cc(OC)c1OC`, the TGI in the assay on ACHN renal is 75.4 µM; in the assay with COLO 205 colon, over 100 µM; in the assay with HOP-92 NSCLC, 44 µM; with RXF 393 renal it was 42.6 µM; with SF-268 CNS, over 100 µM; in the assay on SF-539 CNS, over 100 µM. Moreover, the TGI in the assay on SN12C renal was over 100 µM; in the assay on SW-620 colon it was over 100 µM; with TK-10 renal it was over 88.5 µM; in the assay on U251 CNS it was over 100 µM.

Regarding `Nc1cc2c3c(cccc3c1)NC2=O`, the TGI in the assay with ACHN renal, in the assay with COLO 205 colon, in the assay on HOP-92 NSCLC, in the assay with RXF 393 renal, in the assay with SF-268 CNS and with SF-539 CNS was over 100 µM in each case. The TGI with SN12C renal, in the assay with SW-620 colon, in the assay on TK-10 renal and with U251 CNS was over 100 µM each time.

In the case of `Fc1cccc(Cl)c1C1SCc2nc3ccccc3n21` (stereo not drawn), the concentration for total growth inhibition (TGI) in the assay on ACHN renal was over 100 µM; in the assay with COLO 205 colon, 47.3 µM; in the assay on HOP-92 NSCLC, 37.8 µM; in the assay on RXF 393 renal, over 100 µM; in the assay on SF-268 CNS, over 100 µM; in the assay with SF-539 CNS, 44.4 µM. Further, the TGI in the assay on SN12C renal was over 100 µM; in the assay with SW-620 colon, over 100 µM; in the assay with TK-10 renal, over 100 µM; in the assay on U251 CNS it was 89.7 µM.

For the compound `C#C[C@]1(O)CC[C@H]2[C@@H]3CC=C4c5nc(Nc6ccccn6)sc5CC[C@]4(C)[C@H]3CC[C@@]21C`, the GI50 in the assay on ACHN renal was 1.37 µM; with COLO 205 colon, 1.81 µM; in the assay on HOP-92 NSCLC, 1.8 µM; in the assay on RXF 393 renal, 0.218 µM; in the assay with SF-268 CNS it was 1.85 µM; with SF-539 CNS, 0.185 µM. Further, the GI50 is 1.75 µM in the assay with SN12C renal, 1.24 µM with SW-620 colon, 2.22 µM in the assay with TK-10 renal and 0.541 µM in the assay with U251 CNS. In addition, the TGI in the assay on ACHN renal turned out to be 10.2 µM; with COLO 205 colon it was 4.05 µM; with HOP-92 NSCLC it was 4.43 µM; in the assay with RXF 393 renal, 0.468 µM; in the assay on SF-268 CNS, 6.87 µM; with SF-539 CNS, 0.744 µM. The total growth inhibition concentration (TGI) in the assay on SN12C renal turned out to be 3.62 µM; in the assay with SW-620 colon it was 2.91 µM; with TK-10 renal, 5.08 µM; with U251 CNS it was 2.13 µM.

In the case of `COC(=O)c1ccc2c(c1)C(NC(C)=O)CCc1cc(OC)c(OC)c(OC)c1-2` (stereo not drawn), the TGI with ACHN renal was over 100 µM; in the assay with COLO 205 colon it was 0.0194 µM; in the assay on HOP-92 NSCLC it was 13.1 µM; with RXF 393 renal, 6.65 µM; in the assay with SF-268 CNS it was 77.9 µM; in the assay with SF-539 CNS it was 0.056 µM. For the same compound, the TGI was over 96.1 µM with SN12C renal, over 100 µM with SW-620 colon, over 100 µM in the assay on TK-10 renal and 16.5 µM with U251 CNS.

In the case of `CSc1ccc(/C=C2\CNC/C(=C\c3ccc(SC)cc3)C2=O)cc1`, the TGI with ACHN renal is over 371 µM; with COLO 205 colon, > 371 µM and 150 µg/mL; in the assay with HOP-92 NSCLC, 233 µM and 83.2 µg/mL; with RXF 393 renal, 81.1 µM and 34.2 µg/mL; in the assay on SF-268 CNS it was > 141 µM and 150 µg/mL; with SF-539 CNS, 32.7 µM and 43.8 µg/mL. Besides, the total growth inhibition concentration (TGI) with SN12C renal is > 371 µM and 150 µg/mL; in the assay with SW-620 colon, > 371 µM and 150 µg/mL; with TK-10 renal it was over 165 µM; in the assay with U251 CNS, 83.7 µM and 65.4 µg/mL. Also, the GI50 was 150 µg/mL in the assay with COLO 205 colon; 31.9 µM and 27 µg/mL in the assay on HOP-92 NSCLC; 74 µM and 10.8 µg/mL in the assay with RXF 393 renal; 44 µg/mL with SF-268 CNS; 15.2 µg/mL with SF-539 CNS; 150 µg/mL with SN12C renal. The GI50 is 150 µg/mL with SW-620 colon; 34.8 µM and 21.7 µg/mL in the assay on U251 CNS.

For `COc1cc(-c2csc(NC(=O)c3cc(C(F)(F)F)cc(C(F)(F)F)c3)n2)cc(OC)c1OC`, the GI50 in the assay on ACHN renal is 3.42 µM; in the assay on COLO 205 colon, 2.63 µM; in the assay with HOP-92 NSCLC, 0.848 µM; in the assay on RXF 393 renal it was 1.96 µM; in the assay on SF-268 CNS, 3.64 µM; with SF-539 CNS, 3.35 µM. For the same compound, the GI50 is 2.78 µM with SN12C renal, 3.44 µM with SW-620 colon, 2.49 µM with TK-10 renal and 2.7 µM in the assay on U251 CNS. The TGI was over 100 µM with ACHN renal; 7.29 µM in the assay with COLO 205 colon; 4.11 µM in the assay with HOP-92 NSCLC; 8.94 µM in the assay with RXF 393 renal; over 100 µM with SF-268 CNS; over 100 µM with SF-539 CNS. Besides, the TGI with SN12C renal, in the assay on SW-620 colon, in the assay on TK-10 renal and in the assay with U251 CNS was over 100 µM in each case.
